According to patent US8258115B2, “Stable salts of S-adenosylmethionine and process for the preparation thereof” (priority 2007, dated 2012):

How the values were obtained:
Type in all cases: physicochemical
[1] = Moisture % K.F. of the stability samples; settings: sample used in the stability test
Procedure: In the following Tables 2-13, the percentage values are repotted which were obtained in the stability tests carried out on the products of examples 1-6. The stability tests were carried out in thermostated heaters at 40° C. and 75% R.H (tables 2-7) as well as 25° C. and 60% R.H. (tables 8-13), preserving the samples in heat-sealed aluminium/aluminium bags according to the following criteria: […]

[2] = Stability test in thermostated heaters at 25° C. and 60% R.H., active ingredient %; settings: heat-sealed aluminium/aluminium bags
Procedure: (§1) In the following Tables 2-13, the percentage values are repotted which were obtained in the stability tests carried out on the products of examples 1-6. The stability tests were carried out in thermostated heaters at 40° C. and 75% R.H (tables 2-7) as well as 25° C. and 60% R.H. (tables 8-13), preserving the samples in heat-sealed aluminium/aluminium bags according to the following criteria: the active ingredient % was determined for every sampling point taken under consideration.

[3] = Degradation of the active stereoisomer S,S at 40° C. and 75% R.H.
Procedure: (§2) In the following Tables 14-25, the percentage values are reported of the degradation of the active stereoisomer S,S calculated at 40° C. and 75% R.H. (Tables 14-19) and at 25° C. and 65% R.H.

[4] = Degradation of the active stereoisomer S,S at 25° C. and 65% R.H.
Procedure: as §2

[5] = Stability test in thermostated heaters at 40° C. and 75% R.H., active ingredient %; settings: heat-sealed aluminium/aluminium bags
Procedure: as §1

| Compound | Moisture % K.F. [1] | stability test percentage value (active ingredient %), 30 days [2] | stability test percentage value (active ingredient %), 90 days [2] | stability test percentage value (active ingredient %), 180 days [2] | stability test percentage value (active ingredient %), 360 days [2] | stability test percentage value (active ingredient %), 720 days [2] | percentage of active S,S stereoisomer remaining ([3]; 30 days) | percentage of active S,S stereoisomer remaining ([3]; 60 days) | percentage of active S,S stereoisomer remaining ([3]; 90 days) | percentage of active S,S stereoisomer remaining ([3]; 120 days) | percentage of active S,S stereoisomer remaining ([3]; 180 days) | percentage of active S,S stereoisomer remaining ([3]; T = 0) | percentage of the active S,S stereoisomer remaining ([4]; 30 days) | percentage of the active S,S stereoisomer remaining ([4]; 90 days) | percentage of the active S,S stereoisomer remaining ([4]; 180 days) | percentage of the active S,S stereoisomer remaining ([4]; 360 days) | percentage of the active S,S stereoisomer remaining ([4]; 720 days) | percentage of the active S,S stereoisomer remaining ([4]; T = 0) | stability test percentage value (active ingredient %), 30 days [5] | stability test percentage value (active ingredient %), 60 days [5] | other results |
| --- | --- | --- | --- | --- | --- | --- | --- | --- | --- | --- | --- | --- | --- | --- | --- | --- | --- | --- | --- | --- | --- |
| C[S+](CCC(N)C(=O)[O-])C[C@H]1O[C@@H](n2cnc3c(N)ncnc32)[C@H](O)[C@@H]1O.O=S(=O)(O)O.O=S(=O)(O)O.O=S(=O)([O-])[O-].[Mg+2] (stereo partly drawn) [SAMe•2.0H2SO4•1.0Mg2SO4•0.4H2O] | 0.34% | 0.14% | 0.28% | 0.45% | 0.69% | 0.92% | 91.3% | 89.4% | 84.1% | 81.3% | 75.8% | 97.5% | 97.3% | 96.4% | 94.1% | 91.3% | 89.8% | 97.5% | 0.33% | 0.44% | stability test percentage value (active ingredient %), 90 days [5]: 0.61%; stability test percentage value (active ingredient %), 120 days [5]: 1.02%; stability test percentage value (active ingredient %), 180 days [5]: 1.59% |
| C[S+](CCC(N)C(=O)[O-])C[C@H]1O[C@@H](n2cnc3c(N)ncnc32)[C@H](O)[C@@H]1O.O=S(=O)(O)O.O=S(=O)(O)O.[Ca+2].[Cl-].[Cl-] (stereo partly drawn) [SAMe•2.0H2SO4•1.0CaCl2] | 0.35% | 0.16% | 0.29% | 0.35% | 0.68% | 0.82% | 89.3% | 85.3% | 83.3% | 79.3% | 75.3% | 97.2% | 95.9% | 94.9% | 93.8% | 91.2% | 87.8% | 97.2% | 0.17% | 0.42% | stability test percentage value (active ingredient %), 90 days [5]: 0.92%; stability test percentage value (active ingredient %), 120 days [5]: 1.52%; stability test percentage value (active ingredient %), 180 days [5]: 2.70% |
| C[S+](CCC(N)C(=O)[O-])C[C@H]1O[C@@H](n2cnc3c(N)ncnc32)[C@H](O)[C@@H]1O.Cl.Cl.O=S(=O)([O-])[O-].[Mg+2] (stereo partly drawn) [SAMe•2.0HCl•1.0MgSO4] | 0.52% | 0.19% | 0.28% | 0.41% | 0.65% | 0.87% | 89.9% | 87.9% | 83.0% | 79.1% | 73.3% | 98.0% | 86.5% | 95.6% | 93.0% | 91.1% | 88.2% | 98.0% | 0.27% | 0.49% | stability test percentage value (active ingredient %), 90 days [5]: 0.67%; stability test percentage value (active ingredient %), 120 days [5]: 1.46%; stability test percentage value (active ingredient %), 180 days [5]: 1.62% |
| C[S+](CCC(N)C(=O)[O-])C[C@H]1O[C@@H](n2cnc3c(N)ncnc32)[C@H](O)[C@@H]1O.O=S(=O)(O)O.O=S(=O)(O)O.[Cl-].[Cl-].[Mg+2] (stereo partly drawn) [SAMe•2.0H2SO4•1.0MgCl2] | 0.52% | 0.10% | 0.18% | 0.25% | 0.49% | 0.62% | 89.3% | 85.3% | 83.3% | 89.3% | 75.3% | 97.2% | 96.3% | 95.3% | 93.3% | 91.0% | 88.0% | 97.2% | 0.19% | 0.34% | stability test percentage value (active ingredient %), 90 days [5]: 0.82%; stability test percentage value (active ingredient %), 120 days [5]: 1.12%; stability test percentage value (active ingredient %), 180 days [5]: 1.87% |
| C[S+](CCC(N)C(=O)[O-])C[C@H]1O[C@@H](n2cnc3c(N)ncnc32)[C@H](O)[C@@H]1O.C[S+](CCC(N)C(=O)[O-])C[C@H]1O[C@@H](n2cnc3c(N)ncnc32)[C@H](O)[C@@H]1O.O=S(=O)(O)O.[Cl-].[Cl-].[Mg+2] (stereo partly drawn) [SAMe•0.5H2SO4•0.5MgCl2] | 0.61% | 0.12% | 0.25% | 0.35% | 0.57% | 0.79% | 89.8% | 86.8% | 83.6% | 80.6% | 77.6% | 98.2% | 97.8% | 96.8% | 93.6% | 90.6% | 87.6% | 98.2% | 0.36% | 0.70% | stability test percentage value (active ingredient %), 90 days [5]: 1.16%; stability test percentage value (active ingredient %), 120 days [5]: 1.66%; stability test percentage value (active ingredient %), 180 days [5]: 2.45% |
| C[S+](CCC(N)C(=O)[O-])C[C@H]1O[C@@H](n2cnc3c(N)ncnc32)[C@H](O)[C@@H]1O.C[S+](CCC(N)C(=O)[O-])C[C@H]1O[C@@H](n2cnc3c(N)ncnc32)[C@H](O)[C@@H]1O.Cl.O=S(=O)([O-])[O-].[Mg+2] (stereo partly drawn) [SAMe•0.5HCl•0.5MgSO4] | 0.82% | 0.31% | 0.46% | 0.77% | 0.94% | 1.19% | 92.8% | 87.8% | 84.6% | 89.6% | 72.6% | 98.9% | 97.8% | 95.8% | 94.3% | 91.6% | 88.2% | 98.9% | 0.48% | 0.78% | stability test percentage value (active ingredient %), 90 days [5]: 1.54%; stability test percentage value (active ingredient %), 120 days [5]: 1.98%; stability test percentage value (active ingredient %), 180 days [5]: 2.78% |
